Experimental data reported in patent US5593970A, “Heterocyclic anthracycline analogs” (priority 1994, dated 1997).
pIC50: −log10 of the molar value. Counter-ions that a name gives are not always drawn. Like-named read-outs stand apart in the source and are kept apart here.

Tests used:
Assay in all cases: Microculture tetrazolium assay
Type in all cases: cell-based
SKOV3 = test system: SKOV3
SKVLB = settings: for VLB/OV3: IC50 ratio SKVLB/SKOV3; for pIC50: SKVLB
T47D = test system: T47D
LOX = test system: LOX
HT29 = test system: HT29
[1] = Homo sapiens, SK-OV-3, SKOV3, read-out: IC50
[2] = Homo sapiens, HT-29, HT29, read-out: IC50

SMILES	pIC50 (SKOV3; [1])	pIC50 (SKVLB; read-out: IC50)	pIC50 (T47D; Homo sapiens, read-out: IC50)	pIC50 (LOX; read-out: IC50)	pIC50 (HT29; [2])	pIC50 (SKOV3; SKOV3, read-out: IC50)	pIC50 (T47D; read-out: IC50)	pIC50 (HT29; HT29, read-out: IC50)	VLB/OV3 (SKVLB)	pIC50 (SKVLB)	pIC50 (SKOV3; Homo sapiens, SK-OV-3, SKOV3)	pIC50 (T47D; Homo sapiens)	pIC50 (LOX)	pIC50 (HT29; Homo sapiens, HT-29, HT29)
CCN(CC)C(=O)[C@H]1CC2=C(C(=O)c3cc4ccccc4c(O)c3C2=O)[C@H](O[C@H]2C[C@H](NC(=O)C(F)(F)F)[C@H](O)[C@H](C)O2)O1 [BCH-1653]	5.49	–	5.15	5.41	6.05	–	–	–	1.85	5.22	–	–	–	–
CCN(CC)C(=O)[C@@H]1CC2=C(C(=O)c3cc4ccccc4c(O)c3C2=O)[C@@H](O[C@H]2C[C@H](NC(=O)C(F)(F)F)[C@H](O)[C@H](C)O2)O1 [BCH-1656]	–	5.15	5.28	5.41	5.42	–	–	–	1.72	–	5.39	–	–	–
COC[C@@H]1CC2=C(C(=O)c3cc4ccccc4c(O)c3C2=O)[C@@H](O[C@H]2C[C@H](N)[C@H](O)[C@H](C)O2)O1 [BCH-1695, (1'S ,1R,3S)-5,12-dioxo-6-hydroxy-3-methoxymethyl-1-(2',3',6'trideoxy-3'-amino-L-lyxohexopyranose)-3,4,5,12-tetrahydroanthraceno-[2,3-c]pyran]	–	4.59	4.89	5.28	4.83	–	–	–	4.46	–	5.24	–	–	–
CC(=O)[C@@H]1CC2=C(C(=O)c3cc4ccccc4c(O)c3C2=O)[C@@H](O[C@@H]2O[C@@H](C)[C@@H](O)[C@@H](O)C2I)O1 (some centres unmarked) [BCH-1990]	5.68	–	5.41	5.52	5.96	–	–	–	2.64	5.26	–	–	–	–
COCC1(COC)CC2=C(C(=O)c3cc4ccccc4c(O)c3C2=O)[C@H](O[C@H]2C[C@H](N)[C@H](O)[C@H](C)O2)O1 [BCH-1991, (1'S,1S)-5,12-dioxo-6-hydroxy-3,3-bis-methoxymethyl-1-(2',3',6'-trideoxy-3'-amino-L-lyxohexopyranose)-3,4,5,12-tetrahydroanthraceno-[2,3-c]-pyran hydrochloride]	5.83	–	6.04	5.89	5.76	–	–	–	3.77	5.26	–	–	–	–
CC(=O)[C@@H]1Cc2c(O)c3c(c(O)c2[C@@H](O[C@H]2O[C@H](CO)[C@@H](O)[C@H](O)[C@H]2NC(=O)N(CCCl)N=O)O1)C(=O)c1ccccc1C3=O [BCH-1999, (1'R, 1R,3S)-3-aceto-5,12-dihydroxy-1(2-deoxy-2-chloroethylnitrosoureido D-glucopyranose)-6,11-dioxo-3,4,6,11-tetrahydro-1H-anthra[2,3-c]pyran]	–	–	–	–	–	–	–	–	–	6.00	> 5.11	4.70	5.30	5.09
C=CC[C@H]1CC2=C(C(=O)c3cc4ccccc4c(O)c3C2=O)[C@H](O[C@H]2C[C@H](N)[C@H](O)[C@H](C)O2)O1 [BCH-2006, (1'S,1S,3S)-3-(6-hydroxy-1-(2',3',6'-trideoxy-3'-amino-4'-hydroxy-L-lyxohexopyranose)-5,12-dioxo-3,4,5,12-tetrahydroanthraceno-[2,3-c]pyran-3-yl)propene hydrochloride]	6.05	5.43	5.72	6.32	6.39	–	–	–	4.23	–	–	–	–	–

Further lines, with some results ahead:

pIC50 (SKOV3; [1])	pIC50 (SKVLB; read-out: IC50)	pIC50 (T47D; Homo sapiens, read-out: IC50)	pIC50 (LOX; read-out: IC50)	pIC50 (HT29; [2])	pIC50 (SKOV3; SKOV3, read-out: IC50)	pIC50 (T47D; read-out: IC50)	pIC50 (HT29; HT29, read-out: IC50)	SMILES	VLB/OV3 (SKVLB)	pIC50 (SKVLB)	pIC50 (SKOV3; Homo sapiens, SK-OV-3, SKOV3)	pIC50 (T47D; Homo sapiens)	pIC50 (LOX)	pIC50 (HT29; Homo sapiens, HT-29, HT29)
5.44	5.22	6.06	5.49	5.60	–	–	–	C[C@@H]1O[C@@H](O[C@@H]2OCCC3=C2C(=O)c2cc4ccccc4c(O)c2C3=O)C[C@H](NC(=O)C(F)(F)F)[C@@H]1O [BCH-1647]	1.67	–	–	–	–	–
5.64	5.69	5.30	5.55	5.20	–	–	–	CC(=O)C1CC2=C(C(=O)c3cc4ccccc4c(O)c3C2=O)C(OC[C@@H]2COC(C)(C)O2)S1 (some centres unmarked) [BCH-1660]	0.88	–	–	–	–	–
5.55	5.58	5.29	5.44	5.52	–	–	–	CC(=O)C1CC2=C(C(=O)c3cc4ccccc4c(O)c3C2=O)C(OC[C@@H]2COC(C)(C)O2)O1 (some centres unmarked) [BCH-1661]	0.94	–	–	–	–	–
5.52	5.02	5.35	5.45	5.37	–	–	–	COC[C@@H]1CC2=C(C(=O)c3cc4ccccc4c(O)c3C2=O)[C@@H](O[C@H]2C[C@H](NC(=O)C(F)(F)F)[C@H](O)[C@H](C)O2)O1 [BCH-1694, (1'S,1R,3S)-5,12-dioxo-6-hydroxy-3-methoxymethyl-1-(2',3',6'-trideoxy-3'-trifluoroacetamido-L-lyxohexopyranose)-3,4,5,12-tetrahydroanthraceno-[2,3-C]pyran]	3.19	–	–	–	–	–
5.96	5.57	5.92	5.96	6.08	–	–	–	COC[C@H]1CC2=C(C(=O)c3cc4ccccc4c(O)c3C2=O)[C@H](O[C@H]2C[C@H](NC(=O)C(F)(F)F)[C@H](O)[C@H](C)O2)O1 [BCH-1696, (1'S,1S,3R)-5,12-dioxo-6-hydroxy-3-methoxymethyl-1-(2',3',6'-trideoxy-3'-trifluoroacetamido-L-lyxohexopyranose)-3,4,5,12-tetrahydroanthraceno-[2,3-C]pyran]	2.46	–	–	–	–	–
6.06	5.24	6.14	6.40	5.95	–	–	–	COCC1(COC)CC2=C(C(=O)c3cc4ccccc4c(O)c3C2=O)[C@H](O[C@H]2C[C@H](NC(=O)C(F)(F)F)[C@H](O)[C@H](C)O2)O1 [BCH-1698, (1'S,1S)-5,12-dioxo-6-hydroxy-3,3-bismethoxymethyl-1-(2',3',6'-trideoxy-3'-trifluoroacetamido-L-lyxohexopyranose)-3,4,5,12-tetrahydroanthraceno-[2,3-C]pyran]	6.73	–	–	–	–	–
–	4.89	–	5.40	–	5.38	5.01	5.46	CC(=O)[C@@H]1CC2=C(C(=O)c3cc4ccccc4c(O)c3C2=O)[C@H](OC[C@@H]2COC(C)(C)O2)S1 [BCH-1993]	3.10	–	–	–	–	–
–	5.06	–	5.72	–	5.56	5.36	5.71	CC(=O)[C@H]1CC2=C(C(=O)c3cc4ccccc4c(O)c3C2=O)[C@@H](OC[C@@H]2COC(C)(C)O2)S1 [BCH-1994]	3.15	–	–	–	–	–
5.81	5.17	5.67	5.64	5.57	–	–	–	C[C@@H]1O[C@@H](O[C@@H]2O[C@@H]([C@H](O)CO)CC3=C2C(=O)c2cc4ccccc4c(O)c2C3=O)C[C@H](NC(=O)C(F)(F)F)[C@@H]1O [BCH-1997]	4.31	–	–	–	–	–
5.51	5.24	5.59	5.60	5.86	–	–	–	C[C@@H]1O[C@@H](O[C@@H]2O[C@@H](S(=O)(=O)c3ccccc3)CC3=C2C(=O)c2cc4ccccc4c(O)c2C3=O)C[C@H](NC(=O)C(F)(F)F)[C@@H]1O [BCH-2001]	1.90	–	–	–	–	–
5.91	5.45	5.84	5.76	6.01	–	–	–	C[C@@H]1O[C@@H](O[C@@H]2OC=CC3=C2C(=O)c2cc4ccccc4c(O)c2C3=O)C[C@H](NC(=O)C(F)(F)F)[C@@H]1O [BCH-2002]	2.88	–	–	–	–	–
